Results taken from ChEMBL document CHEMBL4831500, “Discovery of first-in-class imidazothiazole-based potent and selective ErbB4 (HER4) kinase inhibitors” (Eur J Med Chem, 2021).

Assays:
OVCAR-4 = test: Antiproliferative activity against human OVCAR-4 cells assessed as cell growth inhibition measured after 48 hrs by SRB assay; assay type: functional, cell-based; settings: OVCAR-4, 48 h
DU-145 = test: Antiproliferative activity against human DU-145 cells assessed as cell growth inhibition measured after 48 hrs by SRB assay; assay type: functional, cell-based; settings: DU-145, 48 h
MOLT-4 = test: Antiproliferative activity against human MOLT-4 cells assessed as cell growth inhibition at 10 uM measured after 48 hrs by SRB assay relative to control; assay type: functional
HCC 2998 = test: Antiproliferative activity against human HCC 2998 cells assessed as cell growth inhibition at 10 uM measured after 48 hrs by SRB assay relative to control; assay type: functional
[1] = Cytotoxicity against human WI-38 cells assessed as cell growth inhibition at 10 uM measured after 48 hrs by SRB assay relative to control; assay type: cell-based
[2] = target: Receptor tyrosine-protein kinase erbB-2 (Homo sapiens) (UniProt P04626); test: Inhibition of ErbB2 (unknown origin) at 10 uM incubated for 40 mins in presence of Mg/ATP mix by [gamma p33]-ATP based scintillation counting method relative to control
[3] = target: T1, Receptor tyrosine-protein kinase erbB-4 (Homo sapiens, UniProt Q15303); test: Inhibition of ErbB4 (unknown origin) at 10 uM incubated for 40 mins in presence of Mg/ATP mix by [gamma p33]-ATP based scintillation counting method relative to control
[4] = target: RAF proto-oncogene serine/threonine-protein kinase (Homo sapiens, UniProt P04049); test: Inhibition of RAF1 (unknown origin) at 10 uM incubated for 40 mins in presence of Mg/ATP mix by [gamma p33]-ATP based scintillation counting method relative to control
[5] = target: T1, Receptor tyrosine-protein kinase erbB-4; test: Inhibition of ErbB4 (unknown origin) incubated for 40 mins in presence of Mg/ATP mix by [gamma p33]-ATP based scintillation counting method
Homo sapiens = species: Homo sapiens; test: Selectivity index, ratio of IC50 for inhibition of BRAF V600E mutant (unknown origin) to IC50 for inhibition of ErbB4 (unknown origin); settings: dose 10.0 µM, time 40.0 min
T47D = test: Antiproliferative activity against human T47D cells assessed as cell growth inhibition measured after 48 hrs by SRB assay; assay type: functional, cell-based
hERG (KCNH2) = hERG (KCNH2) (Homo sapiens, UniProt Q12809); test: Safety index, ratio of test compound IC50 to E-4031 IC50 for inhibition of human ERG incubated for 3 hrs by competitive fluorescence tracer binding based assay; settings: read-out: Ratio IC50
Cytochrome P450 2D6 = Cytochrome P450 2D6 (Homo sapiens, UniProt P10635); test: Inhibition of CYP2D6 (unknown origin) using EOMCC as a substrate incubated for 20 mins by fluorescence based analysis; assay type: ADME
Cytochrome P450 3A4 = Cytochrome P450 3A4 (Homo sapiens, UniProt P08684); test: Inhibition of CYP3A4 (unknown origin) using BOMCC as a substrate incubated for 20 mins by fluorescence based analysis; assay type: ADME
CYP3A4 = CYP3A4 (Homo sapiens, UniProt P08684); test: Potency index, ratio of test compound IC50 to ketoconazole IC50 for inhibition of CYP3A4 (unknown origin) using BOMCC as a substrate incubated for 20 mins by fluorescence based analysis; assay type: ADME; settings: probe BOMCC

T1 sequence (Q15303 whole entry): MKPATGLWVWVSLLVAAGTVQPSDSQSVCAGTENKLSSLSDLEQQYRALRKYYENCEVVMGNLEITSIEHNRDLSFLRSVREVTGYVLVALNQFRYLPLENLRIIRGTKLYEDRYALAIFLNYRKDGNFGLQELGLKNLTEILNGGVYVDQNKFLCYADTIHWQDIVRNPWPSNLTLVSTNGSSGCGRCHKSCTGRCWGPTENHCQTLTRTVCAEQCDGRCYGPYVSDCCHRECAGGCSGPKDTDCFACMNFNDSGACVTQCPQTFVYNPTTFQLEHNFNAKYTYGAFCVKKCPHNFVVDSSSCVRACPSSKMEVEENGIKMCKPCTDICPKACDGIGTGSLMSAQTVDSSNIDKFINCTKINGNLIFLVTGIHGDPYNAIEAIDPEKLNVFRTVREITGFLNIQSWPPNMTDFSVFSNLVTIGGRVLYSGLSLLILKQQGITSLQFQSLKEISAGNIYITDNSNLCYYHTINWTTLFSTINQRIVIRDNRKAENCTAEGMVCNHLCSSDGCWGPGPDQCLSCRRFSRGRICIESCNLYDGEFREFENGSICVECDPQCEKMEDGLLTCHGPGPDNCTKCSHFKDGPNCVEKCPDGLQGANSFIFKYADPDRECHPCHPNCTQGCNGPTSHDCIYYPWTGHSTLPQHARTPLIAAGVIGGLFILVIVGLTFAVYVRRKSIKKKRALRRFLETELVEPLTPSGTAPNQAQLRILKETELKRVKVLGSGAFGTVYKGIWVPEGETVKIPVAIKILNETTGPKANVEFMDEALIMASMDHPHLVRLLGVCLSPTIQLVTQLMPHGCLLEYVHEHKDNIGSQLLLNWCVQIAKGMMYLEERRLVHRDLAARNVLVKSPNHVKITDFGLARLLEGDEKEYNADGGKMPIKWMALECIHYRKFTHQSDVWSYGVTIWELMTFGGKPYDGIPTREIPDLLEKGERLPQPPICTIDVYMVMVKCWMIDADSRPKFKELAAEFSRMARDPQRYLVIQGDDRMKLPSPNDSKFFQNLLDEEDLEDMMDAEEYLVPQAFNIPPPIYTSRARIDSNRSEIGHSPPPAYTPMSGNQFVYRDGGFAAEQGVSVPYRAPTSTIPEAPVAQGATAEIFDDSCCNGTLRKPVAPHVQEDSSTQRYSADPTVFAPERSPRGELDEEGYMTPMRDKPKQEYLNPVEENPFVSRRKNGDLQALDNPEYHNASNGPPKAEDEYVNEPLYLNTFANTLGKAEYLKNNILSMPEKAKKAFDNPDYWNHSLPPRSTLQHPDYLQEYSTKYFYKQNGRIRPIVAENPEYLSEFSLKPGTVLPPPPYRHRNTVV
Receptor tyrosine-protein kinase erbB-2 (Homo sapiens), sequence (P04626 whole entry): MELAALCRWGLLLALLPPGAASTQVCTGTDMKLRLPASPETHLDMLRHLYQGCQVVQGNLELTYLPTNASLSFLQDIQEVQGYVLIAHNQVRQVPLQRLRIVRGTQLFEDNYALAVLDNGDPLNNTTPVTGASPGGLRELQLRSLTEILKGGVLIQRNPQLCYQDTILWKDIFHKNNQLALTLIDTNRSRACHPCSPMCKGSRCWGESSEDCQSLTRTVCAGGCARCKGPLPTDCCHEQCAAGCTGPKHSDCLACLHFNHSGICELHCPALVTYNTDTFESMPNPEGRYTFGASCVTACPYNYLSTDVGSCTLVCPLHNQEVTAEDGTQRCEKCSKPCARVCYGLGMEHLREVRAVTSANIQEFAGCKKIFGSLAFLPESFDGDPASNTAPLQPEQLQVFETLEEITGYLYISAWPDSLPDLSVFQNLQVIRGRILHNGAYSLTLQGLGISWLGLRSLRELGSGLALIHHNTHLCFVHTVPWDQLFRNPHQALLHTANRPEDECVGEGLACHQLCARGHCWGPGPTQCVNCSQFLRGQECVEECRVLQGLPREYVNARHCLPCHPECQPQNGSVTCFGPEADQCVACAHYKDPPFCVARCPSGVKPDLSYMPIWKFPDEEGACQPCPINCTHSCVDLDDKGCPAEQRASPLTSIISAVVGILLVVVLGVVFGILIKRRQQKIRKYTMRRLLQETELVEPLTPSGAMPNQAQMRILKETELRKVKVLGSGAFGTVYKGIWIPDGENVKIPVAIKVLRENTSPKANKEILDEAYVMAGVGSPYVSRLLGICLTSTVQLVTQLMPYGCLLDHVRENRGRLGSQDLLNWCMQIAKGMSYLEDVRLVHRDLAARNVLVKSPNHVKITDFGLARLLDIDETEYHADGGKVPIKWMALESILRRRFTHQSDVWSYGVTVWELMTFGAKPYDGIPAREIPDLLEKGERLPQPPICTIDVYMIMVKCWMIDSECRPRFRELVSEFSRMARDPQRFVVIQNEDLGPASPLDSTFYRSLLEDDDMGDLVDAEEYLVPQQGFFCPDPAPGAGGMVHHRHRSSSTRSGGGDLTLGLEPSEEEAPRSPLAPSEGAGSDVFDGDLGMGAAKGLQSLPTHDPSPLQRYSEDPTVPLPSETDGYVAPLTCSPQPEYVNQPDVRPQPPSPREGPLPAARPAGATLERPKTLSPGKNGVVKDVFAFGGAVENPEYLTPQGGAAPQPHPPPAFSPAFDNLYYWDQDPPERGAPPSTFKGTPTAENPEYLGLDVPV
RAF proto-oncogene serine/threonine-protein kinase, sequence (P04049 whole entry): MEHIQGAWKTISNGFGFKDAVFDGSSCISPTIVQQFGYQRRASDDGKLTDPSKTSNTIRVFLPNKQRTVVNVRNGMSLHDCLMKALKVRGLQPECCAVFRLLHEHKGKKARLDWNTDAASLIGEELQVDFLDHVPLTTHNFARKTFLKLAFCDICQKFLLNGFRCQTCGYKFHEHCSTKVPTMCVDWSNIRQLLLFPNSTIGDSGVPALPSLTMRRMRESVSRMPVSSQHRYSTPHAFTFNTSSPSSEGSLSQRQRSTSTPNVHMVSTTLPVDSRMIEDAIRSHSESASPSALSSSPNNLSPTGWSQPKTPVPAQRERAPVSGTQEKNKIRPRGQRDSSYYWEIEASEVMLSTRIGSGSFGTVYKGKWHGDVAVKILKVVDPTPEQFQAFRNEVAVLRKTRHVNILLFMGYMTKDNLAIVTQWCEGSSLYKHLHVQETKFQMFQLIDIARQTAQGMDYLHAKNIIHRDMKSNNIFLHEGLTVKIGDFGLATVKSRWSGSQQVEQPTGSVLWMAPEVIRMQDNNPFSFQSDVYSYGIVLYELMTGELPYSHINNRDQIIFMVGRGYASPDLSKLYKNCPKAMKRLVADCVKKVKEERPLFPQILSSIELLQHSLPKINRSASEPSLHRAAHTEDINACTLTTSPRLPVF
Cytochrome P450 2D6, sequence (P10635 whole entry): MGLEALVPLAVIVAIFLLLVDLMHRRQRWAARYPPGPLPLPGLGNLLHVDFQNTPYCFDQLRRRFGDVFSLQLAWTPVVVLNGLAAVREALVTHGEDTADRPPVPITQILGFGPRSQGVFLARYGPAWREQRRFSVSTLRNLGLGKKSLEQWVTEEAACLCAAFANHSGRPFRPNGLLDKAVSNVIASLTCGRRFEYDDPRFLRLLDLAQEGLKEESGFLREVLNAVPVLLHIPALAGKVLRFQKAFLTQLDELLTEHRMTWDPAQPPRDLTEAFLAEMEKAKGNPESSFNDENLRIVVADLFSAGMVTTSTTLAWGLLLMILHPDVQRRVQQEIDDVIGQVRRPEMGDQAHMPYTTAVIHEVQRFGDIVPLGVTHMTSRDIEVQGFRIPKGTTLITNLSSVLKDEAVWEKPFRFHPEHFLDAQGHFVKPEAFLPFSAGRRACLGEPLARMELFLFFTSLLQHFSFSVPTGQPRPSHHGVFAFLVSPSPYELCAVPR
hERG (KCNH2), sequence (Q12809 whole entry): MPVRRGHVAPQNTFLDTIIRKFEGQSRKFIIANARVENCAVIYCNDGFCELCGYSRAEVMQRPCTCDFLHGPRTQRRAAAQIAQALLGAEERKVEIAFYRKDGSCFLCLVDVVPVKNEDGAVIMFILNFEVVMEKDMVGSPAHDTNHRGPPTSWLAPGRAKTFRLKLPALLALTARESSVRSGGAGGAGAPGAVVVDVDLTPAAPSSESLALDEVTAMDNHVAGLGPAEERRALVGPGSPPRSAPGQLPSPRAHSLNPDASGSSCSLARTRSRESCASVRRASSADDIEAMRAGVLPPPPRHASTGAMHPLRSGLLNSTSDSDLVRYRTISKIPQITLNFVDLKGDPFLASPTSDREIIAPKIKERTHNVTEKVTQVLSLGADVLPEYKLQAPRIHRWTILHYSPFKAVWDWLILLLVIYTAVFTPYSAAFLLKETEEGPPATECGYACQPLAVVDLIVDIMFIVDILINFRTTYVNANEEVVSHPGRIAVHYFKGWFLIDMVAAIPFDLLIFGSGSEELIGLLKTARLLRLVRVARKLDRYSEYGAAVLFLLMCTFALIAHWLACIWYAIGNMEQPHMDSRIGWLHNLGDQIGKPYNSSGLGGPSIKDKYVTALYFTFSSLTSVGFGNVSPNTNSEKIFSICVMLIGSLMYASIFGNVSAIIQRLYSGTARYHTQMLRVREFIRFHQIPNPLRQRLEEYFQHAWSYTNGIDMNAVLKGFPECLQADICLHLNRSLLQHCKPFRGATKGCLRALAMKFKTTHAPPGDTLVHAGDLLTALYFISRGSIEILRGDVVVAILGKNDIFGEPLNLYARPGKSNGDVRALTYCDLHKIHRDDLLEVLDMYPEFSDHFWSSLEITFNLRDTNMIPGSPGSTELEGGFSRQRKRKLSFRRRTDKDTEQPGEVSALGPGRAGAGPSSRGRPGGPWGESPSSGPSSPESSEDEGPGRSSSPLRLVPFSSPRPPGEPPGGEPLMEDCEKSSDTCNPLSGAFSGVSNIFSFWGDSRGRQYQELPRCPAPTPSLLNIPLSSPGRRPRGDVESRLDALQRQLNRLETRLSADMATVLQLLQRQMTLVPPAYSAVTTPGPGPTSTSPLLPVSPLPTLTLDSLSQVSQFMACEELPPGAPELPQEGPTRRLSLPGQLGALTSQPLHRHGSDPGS

IC50 (OVCAR-4): 3.78 µM
IC50 (DU-145): 1.67 µM
inhibition [2]: 2.75%
inhibition [3]: 96.1%
inhibition [4]: 23%
IC50 [5]: 0.0152 µM
Ratio IC50 (Homo sapiens): 866
IC50 (T47D): 4.08 µM
IC50 (Cytochrome P450 2D6): > 90 µM
IC50 (Cytochrome P450 3A4): 17.8 µM
Structure (SMILES): CS(=O)(=O)c1nccc(-c2c(-c3cccc(OCc4ccccc4)c3)nc3sccn23)n1
inhibition at 10 µM (MOLT-4): 73.5%
inhibition at 10 µM (HCC 2998): 67.6%
inhibition at 48 h, 10 µM [1]: 56.4%
selectivity ratio at 3 h (hERG (KCNH2)): 513
selectivity ratio at 20 min (CYP3A4): 7480
